This is an account of results in patent publication US20250108038A1 (priority 2023, published 2025).

For data set [1], the system named is human red blood cells. Kind of data set: Hemolysis study in human blood. In kind it is cell-based. The note with it: 60 min, 37° C.; for % RBC lysis (hemolytic potential): test articles 25, 50, 100 μM, amphotericin B 1, 10, 30, 100 μM. The method, then: FIG. 4A. […] Compound I-19 in human blood. Red blood cells were isolated from whole blood and resuspended in PBS. […] (final concentrations 25, 50, and 100 μM) and the mixtures were incubated at 37° C. for 60 min. After the incubation, the samples were centrifuged and the absorbance of 100 μL of supernatant was read at 410 nm. % RBC lysis is expressed relative to 100% lysis control. Values represent mean+SEM of n=3 separate experiments.
FIG. 4B. Hemolytic Potential of Compound I-4 in human blood. Red blood cells were isolated from whole blood and resuspended in PBS. 190 μL of diluted RBC suspension and 10 μL of Compound I-4 solutions were mixed at 0 min. (final concentrations 25, 50, and 100 μM) and the mixtures were incubated at 37° C. for 60 min. After the incubation, the samples were centrifuged and the absorbance of 100 μL of supernatant was read at 410 nm. % RBC lysis is expressed relative to 100% lysis control. Values represent mean+SEM of n=3 separate experiments.
FIG. 4C. Hemolytic Potential of Amphotericin B in human blood (positive assay control). Red blood cells were isolated from whole blood and resuspended in PBS. 190 μL of diluted RBC suspension and 10 μl of amphotericin B solutions were mixed at 0 min. (final concentrations 1, 10, 30, and 100 μM) and the mixtures were incubated at 37° C. for 60 min. After the incubation, the samples were centrifuged and the absorbance of 100 μL of supernatant was read at 410 nm. % RBC lysis is expressed relative to 100% lysis control. Values represent mean+SEM of n=3 separate experiments.
To a clear 96-well V-bottom polystyrene plate, the test articles (10 μL) and the diluted RBCs (190 μL) from human or rat blood were mixed for final concentrations of 25, 50, and 100 μM. The reaction mixture was incubated at 37° C. for 60 min. Following the exposure period, the plates were centrifuged. After centrifugation, 70 μL of supernatant (without disturbing the pellet) was transferred to a clean and clear polystyrene flat bottomed 96-well plate and the absorbance of the sample at a single wavelength was measured using a BioTech Synergy H1 Plate Reader at a wavelength of 410 nm. The positive control for this assay was amphotericin B test at concentrations of 1, 10, 30, and 100 μM.

Data set [2] has as its system human 3D intestinal model (EpiIntestinal). Briefly: Intestinal permeability in the EpiIntestinal model. In kind it is in vitro ADME. The note with it: apical dose 100 μL of 10 mM stock solution, 120 min, 37° C. The method, then: FIG. 2A. Intestinal permeability of Compound I-19. […] Samples were taken from the basolateral compartment at 0, 15, 30, 60, and 120 min. and were analyzed by LCMSMS for presence of parent compound. Values represent mean+SEM of n=3 separate experiments.
FIG. 2B. Intestinal permeability of Compound I-4 was determined in the human 3D intestinal model (Epilntestinal) from MatTek Corp. Tissues were dosed apically with 100 μL of 10 mM stock solution (4.25 μg) at 0 min. and the tissues were incubated with the test articles at 37° C. for a total of 120 min. Samples were taken from the basolateral compartment at 0, 15, 30, 60, and 120 min. and were analyzed by LCMSMS for presence of parent compound. Values represent mean+SEM of n=3 separate experiments.
Human 3D EpiIntestinal tissue model (MatTek, SMI-100, Lot #33921 Kit B) was used to model the intestine and was used for permeability studies. This model offers […] advantages over other permeability testing models such as Caco-2 cells. […]
The test articles (100 wL of 100 μM solution, or 4.25 ug) was applied to the apical surface of the EpiIntestinal model. […] Metabolic stability was determined by loss of parent compound using LCMSMS.
All data was compiled and organized in Excel. Mean, standard deviation, and standard deviation of the mean were calculated using Excel. […] The permeability coefficient (Papp) was calculated using the following equation: […]

A word on the Papp: it is a coefficient for how fast a substance crosses the barrier. Low values mean poor permeation, high ones ready permeation. Take `COCCOC1(c2ccc(Cl)cc2)c2ccccc2C2=NCCN21` (stereo not drawn) [Compound I-4]: in data set [1], the “EC50 (% RBC lysis)” value is recorded as “outside the concentration range tested” and the “% RBC lysis (hemolytic potential)” value is “no detectable hemolysis”. The same compound returned an apparent permeability (Papp) in data set [2] of 0.155 ×10⁻⁶ cm/s.

As for `Clc1ccc(C2(OCC3OCCO3)c3ccccc3C3=NCCN32)cc1` (stereo not drawn) [Compound I-19], in data set [1], the “EC50 (% RBC lysis)” value is given as “outside the concentration range tested” and the “% RBC lysis (hemolytic potential)” value was “no detectable hemolysis”. Moreover, the Papp in data set [2] was found to be 0.106 ×10⁻⁶ cm/s.
